Laboratory results from ChEMBL document CHEMBL1857833, “Screening and optimization of specific chemical series against human African Trypanosomiasis (HAT)”.
Values after ≈ are worked out from the molar mass of the structure shown. Values joined by “and” are separate entries in the source; they are usually repeats but may differ in a detail not shown here. Equal entries are not always repeated.

Experiments:
[1] = DNDI: Cytotoxicity against L929 mouse fibroblasts, CYTO-SP, 24 hour; type: toxicity, cell-based; conditions: mouse, L929 mouse fibroblasts
Trypanosoma brucei = experiment: DNDI: Inhibition of Human African Trypanosomiasis, SBRI 427, in vitro; type: functional, organism-based
[2] = Trypanosoma brucei, SBRI 427, read-out: IC50

**Q.** With `O/N=C(\NC1CCCCC1)c1ccc(Oc2ccc(Cl)cc2)nc1` as the compound, how does the IC50 at 24 h [1] read?
**A.** 30.8 µg/mL (≈ 89.1 µM)

**Q.** And the IC50 (Trypanosoma brucei; [2])?
**A.** 1.2 µg/mL (≈ 3.47 µM)

**Q.** With `CC(C)(C)CN/C(=N\O)c1ccc(Oc2cc(Cl)ccc2Cl)nc1` as the compound, how does the IC50 at 24 h [1] read?
**A.** > 50 µg/mL

**Q.** What about the IC50 (Trypanosoma brucei; [2]) of the same compound?
**A.** 0.9 µg/mL (≈ 2.44 µM)

**Q.** Which results are given for `COCC(C)N/C(=N\O)c1ccnc(Oc2ccc(F)c(Cl)c2)c1` (stereo not drawn)?
**A.** IC50 at 24 h [1]: > 50 µg/mL; IC50 (Trypanosoma brucei; [2]): 0.82 µg/mL (≈ 2.32 µM)

**Q.** Which IC50 at 24 h [1] does the source give for `O=C(NC1CCCCC1)c1cccnc1Oc1ccccc1` here?
**A.** > 50 µg/mL

**Q.** And the IC50 (Trypanosoma brucei; [2])?
**A.** > 5 µg/mL

**Q.** With `COc1cccc(CN/C(=N\O)c2cccnc2Oc2ccc(Cl)cc2)c1` as the compound, how does the IC50 at 24 h [1] read?
**A.** > 50 µg/mL

**Q.** And the IC50 (Trypanosoma brucei; [2])?
**A.** 1.1 µg/mL (≈ 2.87 µM)

**Q.** What does the source list for `CCC(CC)N/C(=N\O)c1cccnc1Oc1ccc(C)c2c1CCC2`?
**A.** IC50 at 24 h [1]: > 50 µg/mL; IC50 (Trypanosoma brucei; [2]): 0.37 µg/mL (≈ 1.05 µM)

**Q.** With `Cc1cc(C)cc(CN/C(=N\O)c2cccnc2Oc2c(F)cccc2F)c1` as the compound, how does the IC50 at 24 h [1] read?
**A.** > 50 µg/mL

**Q.** And the IC50 (Trypanosoma brucei; [2])?
**A.** 1.08 µg/mL (≈ 2.82 µM)

**Q.** What does the source list for `CN1CCCC1CCNCc1coc(-c2ccc(Br)cc2)n1` (stereo not drawn)?
**A.** IC50 at 24 h [1]: 25.1 µg/mL (≈ 68.9 µM); IC50 (Trypanosoma brucei): 1.22 µg/mL and 0.45 µg/mL

**Q.** With `CCN(CC)/C(=N\O)c1ccccc1-c1ccccc1` as the compound, how does the IC50 at 24 h [1] read?
**A.** > 50 µg/mL

**Q.** What about the IC50 (Trypanosoma brucei; [2]) of the same compound?
**A.** > 5 µg/mL

**Q.** For `Cc1ccc(Oc2nc(C)ccc2/C(=N/O)NC2CCCCC2)c(C)c1`, which IC50 at 24 h [1] is on record?
**A.** 34 µg/mL (≈ 96.2 µM)

**Q.** What about the IC50 (Trypanosoma brucei) of the same compound?
**A.** 0.78 µg/mL and 0.28 µg/mL

**Q.** For `N#Cc1cccnc1Oc1ccccc1F`, which IC50 at 24 h [1] is on record?
**A.** > 50 µg/mL

**Q.** What about the IC50 (Trypanosoma brucei; [2]) of the same compound?
**A.** > 5 µg/mL

**Q.** Which IC50 at 24 h [1] does the source give for `O=C(NC1CCCCC1)c1cccnc1Cl` here?
**A.** > 50 µg/mL

**Q.** And the IC50 (Trypanosoma brucei; [2])?
**A.** > 5 µg/mL

**Q.** For `COc1ccccc1Oc1ncccc1C#N`, which IC50 at 24 h [1] is on record?
**A.** > 50 µg/mL

**Q.** What about the IC50 (Trypanosoma brucei; [2]) of the same compound?
**A.** > 5 µg/mL

**Q.** For `CSc1ccccc1Oc1ncccc1/C(N)=N\O`, which IC50 at 24 h [1] is on record?
**A.** > 5 µg/mL

**Q.** What about the IC50 (Trypanosoma brucei; [2]) of the same compound?
**A.** > 5 µg/mL

**Q.** Which IC50 at 24 h [1] does the source give for `O/N=C(\NCc1c(F)cccc1F)c1cccnc1Oc1c(F)cccc1F` here?
**A.** > 50 µg/mL

**Q.** And the IC50 (Trypanosoma brucei; [2])?
**A.** 1.15 µg/mL (≈ 2.94 µM)

**Q.** Which results are given for `CC(C)N1CCN(/C(=N\O)c2cccnc2Oc2cccc(C(F)(F)F)c2)CC1`?
**A.** IC50 at 24 h [1]: > 50 µg/mL; IC50 (Trypanosoma brucei; [2]): 0.73 µg/mL (≈ 1.79 µM)

**Q.** With `COc1ccc(Oc2ncccc2/C(=N/O)NCC2CC2)cc1` as the compound, how does the IC50 at 24 h [1] read?
**A.** > 50 µg/mL

**Q.** And the IC50 (Trypanosoma brucei; [2])?
**A.** 0.34 µg/mL (≈ 1.09 µM)

**Q.** Which IC50 at 24 h [1] does the source give for `COCC(C)N/C(=N\O)c1cccnc1Oc1ccc(C(C)C)cc1` (stereo not drawn) here?
**A.** > 50 µg/mL

**Q.** And the IC50 (Trypanosoma brucei; [2])?
**A.** 0.92 µg/mL (≈ 2.68 µM)

**Q.** For `CC(C)CO/N=C/c1ccccc1-c1ccccc1`, which IC50 at 24 h [1] is on record?
**A.** > 50 µg/mL

**Q.** And the IC50 (Trypanosoma brucei; [2])?
**A.** > 5 µg/mL

**Q.** With `O/N=C(\NC1CCCC1)c1cccnc1Oc1c(F)cccc1F` as the compound, how does the IC50 at 24 h [1] read?
**A.** > 50 µg/mL

**Q.** What about the IC50 (Trypanosoma brucei; [2]) of the same compound?
**A.** 0.23 µg/mL (≈ 0.69 µM)

**Q.** Which results are given for `O/N=C(\NCc1ccccc1)c1cccnc1Oc1cc(Cl)ccc1Cl`?
**A.** IC50 at 24 h [1]: > 50 µg/mL; IC50 (Trypanosoma brucei; [2]): 0.77 µg/mL (≈ 1.98 µM)

**Q.** For `O=C(NC1CCCCC1)c1cccnc1Oc1ccccc1Cl`, which IC50 at 24 h [1] is on record?
**A.** > 50 µg/mL

**Q.** What about the IC50 (Trypanosoma brucei; [2]) of the same compound?
**A.** > 5 µg/mL

**Q.** Which results are given for `CC(C)COc1ncccc1/C(=N/O)NCC(C)(C)C`?
**A.** IC50 at 24 h [1]: > 50 µg/mL; IC50 (Trypanosoma brucei; [2]): 1.12 µg/mL (≈ 4.01 µM)

**Q.** Which IC50 at 24 h [1] does the source give for `C=CCO/N=C/c1ccccc1-c1ccccc1` here?
**A.** > 50 µg/mL

**Q.** And the IC50 (Trypanosoma brucei; [2])?
**A.** > 5 µg/mL

**Q.** For `COCCN/C(=N\O)c1cccnc1Oc1ccc(C(C)C)cc1`, which IC50 at 24 h [1] is on record?
**A.** > 50 µg/mL

**Q.** What about the IC50 (Trypanosoma brucei; [2]) of the same compound?
**A.** 1.04 µg/mL (≈ 3.16 µM)

**Q.** For `N/C(=N/O)c1cccnc1Oc1ccccc1Br`, which IC50 at 24 h [1] is on record?
**A.** > 50 µg/mL

**Q.** And the IC50 (Trypanosoma brucei; [2])?
**A.** > 5 µg/mL

**Q.** For `CC1CC(NCc2coc(-c3ccc(C(F)(F)F)cc3)n2)CC(C)(C)C1` (stereo not drawn), which IC50 at 24 h [1] is on record?
**A.** > 50 µg/mL

**Q.** And the IC50 (Trypanosoma brucei)?
**A.** 0.54 µg/mL (≈ 1.47 µM)

**Q.** And the IC50 (Trypanosoma brucei; [2])?
**A.** 1.07 µg/mL (≈ 2.92 µM)

**Q.** Which IC50 at 24 h [1] does the source give for `CC1CCCCN1CCCNCc1coc(-c2ccc(Cl)cc2Cl)n1` (stereo not drawn) here?
**A.** 42.2 µg/mL (≈ 110 µM)

**Q.** What about the IC50 (Trypanosoma brucei) of the same compound?
**A.** 2.68 µg/mL and 1.13 µg/mL

**Q.** Which results are given for `O/N=C(\NCC1CCCCC1)c1cccnc1Oc1c(F)cccc1F`?
**A.** IC50 at 24 h [1]: > 50 µg/mL; IC50 (Trypanosoma brucei; [2]): 0.91 µg/mL (≈ 2.52 µM)

**Q.** With `CCC(CC)N/C(=N\O)c1ccc(C)nc1Oc1ccc(SC)cc1` as the compound, how does the IC50 at 24 h [1] read?
**A.** > 50 µg/mL

**Q.** And the IC50 (Trypanosoma brucei; [2])?
**A.** 1.08 µg/mL (≈ 3 µM)

**Q.** What does the source list for `CCOc1ccccc1CN/C(=N\O)c1cccnc1Oc1ccc(C)c2c1CCC2`?
**A.** IC50 at 24 h [1]: > 50 µg/mL; IC50 (Trypanosoma brucei; [2]): 0.73 µg/mL (≈ 1.75 µM)

**Q.** For `Cc1ccccc1CN/C(=N\O)c1cccnc1Oc1cc(Cl)ccc1Cl`, which IC50 at 24 h [1] is on record?
**A.** 33.6 µg/mL (≈ 83.6 µM)

**Q.** And the IC50 (Trypanosoma brucei; [2])?
**A.** 1.06 µg/mL (≈ 2.63 µM)

**Q.** What does the source list for `CCc1ccc(Oc2ncccc2/C(=N/O)NCCOC)cc1`?
**A.** IC50 at 24 h [1]: > 50 µg/mL; IC50 (Trypanosoma brucei; [2]): 1.12 µg/mL (≈ 3.55 µM)

**Q.** For `COc1cc(C)ccc1Oc1ncccc1/C(N)=N/O`, which IC50 at 24 h [1] is on record?
**A.** > 5 µg/mL

**Q.** What about the IC50 (Trypanosoma brucei; [2]) of the same compound?
**A.** > 5 µg/mL

**Q.** What does the source list for `CC(C)Oc1ccccc1Oc1ncccc1/C(=N/O)NC1CCCCC1`?
**A.** IC50 at 24 h [1]: > 50 µg/mL; IC50 (Trypanosoma brucei; [2]): 0.46 µg/mL (≈ 1.25 µM)

**Q.** What does the source list for `CC(C)(C)CN/C(=N\O)c1cccnc1Oc1c(F)cccc1F`?
**A.** IC50 at 24 h [1]: 45.4 µg/mL (≈ 135 µM); IC50 (Trypanosoma brucei; [2]): 0.39 µg/mL (≈ 1.16 µM)

**Q.** With `O/N=C(\NC1CCCCC1)c1cccnc1Oc1ccc2ccccc2c1` as the compound, how does the IC50 at 24 h [1] read?
**A.** > 50 µg/mL

**Q.** And the IC50 (Trypanosoma brucei; [2])?
**A.** 0.08 µg/mL (≈ 0.221 µM)

**Q.** Which IC50 at 24 h [1] does the source give for `CC1CC(N/C(=N\O)c2cccnc2Oc2cc(Cl)ccc2Cl)CC(C)(C)C1` (stereo not drawn) here?
**A.** 30.9 µg/mL (≈ 73.2 µM)

**Q.** What about the IC50 (Trypanosoma brucei; [2]) of the same compound?
**A.** 0.03 µg/mL (≈ 0.071 µM)

**Q.** Which IC50 at 24 h [1] does the source give for `COc1ccc(Oc2ncccc2/C(=N/O)NC2CCC2)cc1` here?
**A.** > 50 µg/mL

**Q.** And the IC50 (Trypanosoma brucei; [2])?
**A.** 0.28 µg/mL (≈ 0.894 µM)

**Q.** For `CC1CC(N/C(=N\O)c2cccnc2Oc2ccccc2OC(C)C)CC(C)(C)C1` (stereo not drawn), which IC50 at 24 h [1] is on record?
**A.** > 50 µg/mL

**Q.** And the IC50 (Trypanosoma brucei; [2])?
**A.** 1.06 µg/mL (≈ 2.58 µM)

**Q.** What does the source list for `CC1CCC(N/C(=N\O)c2cccnc2Oc2c(F)cccc2F)CC1` (stereo not drawn)?
**A.** IC50 at 24 h [1]: > 50 µg/mL; IC50 (Trypanosoma brucei; [2]): 0.99 µg/mL (≈ 2.74 µM)

**Q.** What does the source list for `CC1CC(N/C(=N\O)c2cccnc2Oc2ccc(F)c(Cl)c2)CC(C)(C)C1` (stereo not drawn)?
**A.** IC50 at 24 h [1]: 28.2 µg/mL (≈ 69.4 µM); IC50 (Trypanosoma brucei; [2]): 0.07 µg/mL (≈ 0.172 µM)

**Q.** Which results are given for `COc1cc(C)ccc1Oc1nc(C)ccc1/C(=N/O)NCC(C)(C)C`?
**A.** IC50 at 24 h [1]: < 50 µg/mL; IC50 (Trypanosoma brucei; [2]): 0.09 µg/mL (≈ 0.252 µM)

**Q.** Which IC50 at 24 h [1] does the source give for `CCC(CC)N/C(=N\O)c1cccnc1Oc1c(F)cccc1F` here?
**A.** > 50 µg/mL

**Q.** What about the IC50 (Trypanosoma brucei; [2]) of the same compound?
**A.** 0.31 µg/mL (≈ 0.924 µM)

**Q.** Which results are given for `CC1CC(N/C(=N\O)c2cccnc2Oc2c(F)cccc2F)CC(C)(C)C1` (stereo not drawn)?
**A.** IC50 at 24 h [1]: 31.5 µg/mL (≈ 80.9 µM); IC50 (Trypanosoma brucei; [2]): 1.12 µg/mL (≈ 2.88 µM)

**Q.** For `COc1ccc(/C=N/OCC(C)C)cc1`, which IC50 at 24 h [1] is on record?
**A.** > 50 µg/mL

**Q.** What about the IC50 (Trypanosoma brucei; [2]) of the same compound?
**A.** > 5 µg/mL
